Data as given in PubChem BioAssay AID1963846 (Molecular Pharmacology Branch, DTP, NCI, 2024).

System: 454973-116-R2-J3-PDC complex spheroid viability
Experiment: Anticancer human tumor 454973-116-R2-J3-PDC patient-derived pancreatic carcinoma cell line growth inhibition [POLQ]
Details: for IC50: curve of first compound; for viability, T/C: stronger effect = lower value
Outline: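 Growth inhibition in 3D: complex spheroids (tumor PDC, HUVEC, MSC) treated with POLQ inhibitor combinations; where Cmax unknown, highest tested concentration 10 microM, except SN-38 at 1 microM.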

[1] = second compound 0.0316 µM, first compound 0.0316 µM
[2] = second compound 0.0316 µM, first compound 0.1 µM
[3] = second compound 0.0316 µM, first compound 0.316 µM
[4] = second compound 0.0316 µM, first compound 1 µM
[5] = second compound 0.0316 µM, first compound 3.16 µM
[6] = second compound 0.0316 µM, first compound 10 µM
[7] = second compound 0.1 µM, first compound 0.0316 µM
[8] = second compound 0.1 µM, first compound 0.1 µM
[9] = second compound 0.1 µM, first compound 0.316 µM
[10] = second compound 0.1 µM, first compound 1 µM
[11] = second compound 0.1 µM, first compound 3.16 µM
[12] = second compound 0.1 µM, first compound 10 µM
[13] = second compound 0.316 µM, first compound 0.0316 µM
[14] = second compound 0.316 µM, first compound 0.1 µM
[15] = second compound 0.316 µM, first compound 0.316 µM
[16] = second compound 0.316 µM, first compound 1 µM
[17] = second compound 0.316 µM, first compound 3.16 µM
[18] = second compound 0.316 µM, first compound 10 µM
[19] = second compound 1 µM, first compound 0.0316 µM
[20] = second compound 1 µM, first compound 0.1 µM
[21] = second compound 1 µM, first compound 0.316 µM
[22] = second compound 1 µM, first compound 1 µM
[23] = second compound 1 µM, first compound 3.16 µM
[24] = second compound 1 µM, first compound 10 µM
[25] = second compound 3.16 µM, first compound 0.0316 µM
[26] = second compound 3.16 µM, first compound 0.1 µM
[27] = second compound 3.16 µM, first compound 0.316 µM
[28] = second compound 3.16 µM, first compound 1 µM
[29] = second compound 3.16 µM, first compound 3.16 µM
[30] = second compound 3.16 µM, first compound 10 µM
[31] = second compound 10 µM, first compound 0.0316 µM
[32] = second compound 10 µM, first compound 0.1 µM
[33] = second compound 10 µM, first compound 0.316 µM
[34] = second compound 10 µM, first compound 1 µM
[35] = second compound 10 µM, first compound 3.16 µM
[36] = second compound 10 µM, first compound 10 µM
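Note: spheroids exposed to drugs for seven days before measurement.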
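Throughout, for viability, T/C: percent viability relative to DMSO vehicle control wells taken as 100%.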

CNCc1ccc(-c2[nH]c3cc(F)cc4c3c2CCNC4=O)cc1 + Cc1cccc(N(C)C(=O)C2C(O)CCN2c2nc(C)cc(C(F)(F)F)c2C#N)c1
IC50 (second compound 0.0316 µM): > 10 µM | IC50 (second compound 0.1 µM): > 10 µM | IC50 (second compound 0.316 µM): > 10 µM | IC50 (second compound 1 µM): > 10 µM | IC50 (second compound 3.16 µM): > 10 µM | IC50 (second compound 10 µM): > 10 µM | viability, T/C [1]: 110% | viability, T/C [2]: 96.1% | viability, T/C [3]: 101% | viability, T/C [4]: 103% | viability, T/C [5]: 101% | viability, T/C [6]: 79.1% | viability, T/C [7]: 94% | viability, T/C [8]: 108% | viability, T/C [9]: 97.8% | viability, T/C [10]: 102% | viability, T/C [11]: 99.4% | viability, T/C [12]: 83% | viability, T/C [13]: 106% | viability, T/C [14]: 102% | viability, T/C [15]: 107% | viability, T/C [16]: 98.9% | viability, T/C [17]: 104% | viability, T/C [18]: 85.8% | viability, T/C [19]: 108% | viability, T/C [20]: 111% | viability, T/C [21]: 103% | viability, T/C [22]: 97.2% | viability, T/C [23]: 100% | viability, T/C [24]: 86.6% | viability, T/C [25]: 109% | viability, T/C [26]: 105% | viability, T/C [27]: 105% | viability, T/C [28]: 106% | viability, T/C [29]: 106% | viability, T/C [30]: 82.9% | viability, T/C [31]: 118% | viability, T/C [32]: 105% | viability, T/C [33]: 101% | viability, T/C [34]: 95.6% | viability, T/C [35]: 106% | viability, T/C [36]: 74.9%

O=C(c1cc(Cc2n[nH]c(=O)c3ccccc23)ccc1F)N1CCN(C(=O)C2CC2)CC1 + Cc1cccc(N(C)C(=O)C2C(O)CCN2c2nc(C)cc(C(F)(F)F)c2C#N)c1
IC50 (second compound 0.0316 µM): > 10 µM | IC50 (second compound 0.1 µM): > 10 µM | IC50 (second compound 0.316 µM): > 10 µM | IC50 (second compound 1 µM): > 10 µM | IC50 (second compound 3.16 µM): > 10 µM | IC50 (second compound 10 µM): > 10 µM | viability, T/C [1]: 99.8% | viability, T/C [2]: 107% | viability, T/C [3]: 95.3% | viability, T/C [4]: 103% | viability, T/C [5]: 98% | viability, T/C [6]: 61.4% | viability, T/C [7]: 94.7% | viability, T/C [8]: 103% | viability, T/C [9]: 103% | viability, T/C [10]: 99.3% | viability, T/C [11]: 91.4% | viability, T/C [12]: 64.8% | viability, T/C [13]: 99.1% | viability, T/C [14]: 110% | viability, T/C [15]: 106% | viability, T/C [16]: 106% | viability, T/C [17]: 94.5% | viability, T/C [18]: 61% | viability, T/C [19]: 105% | viability, T/C [20]: 96.8% | viability, T/C [21]: 109% | viability, T/C [22]: 102% | viability, T/C [23]: 91.1% | viability, T/C [24]: 62% | viability, T/C [25]: 108% | viability, T/C [26]: 98.5% | viability, T/C [27]: 104% | viability, T/C [28]: 96.2% | viability, T/C [29]: 96.3% | viability, T/C [30]: 62.6% | viability, T/C [31]: 108% | viability, T/C [32]: 105% | viability, T/C [33]: 102% | viability, T/C [34]: 98.4% | viability, T/C [35]: 92% | viability, T/C [36]: 57.7%
